# In patent US11547709B2, “Methods of treating disorders associated with castor” (ST. JUDE CHILDREN'S RESEARCH HOSPITAL, INC., priority 2017, dated 2023):
# Assays:
# Format in all cases: in vivo
# [1] = test system: Pcca−/−(A138T) mouse model of propionic acidemia; experiment: Blood ammonia levels in mouse model of propionic acidemia; conditions: chow with 225 ppm PZ-2891 plus 1000 ppm Pan for 7 days vs 1000 ppm Pan alone; p=0.0032
# Method: Referring to FIG. 2, a mouse model of propionic acidemia, the Pcca−/−(A138T) (Guensel et al. (2013) Mol. Ther. 21: 1316-1323), was fed chow containing either 1000 ppm pantothenate (Pan) or 225 ppm PZ-2891 plus 1000 ppm Pan for 7 days. Blood was drawn from 6 mice per group and blood ammonia levels were determined using a GM7 Micro-Stat Analyser (Analox Instruments, www.analox.com) and the Analox Blood Ammonia Reagent kit according to the manufacturer's instructions. Statistical analysis was performed using the Students unpaired t-test and p=0.0032.
# [2] = test system: Pcca−/−(A138T) mouse model of propionic acidemia; experiment: Total liver CoA levels in Pcca mouse model; conditions: chow with 1000 ppm pantothenate plus 75 ppm PZ-3022 from day 21, measured at 70 days
# Method: (§1) Referring to FIG. 4, a mouse model of propionic acidemia, the Pcca−/−(A138T) mouse (Guensel et al. (2013) Mol. Ther. 21: 1316-23) was fed chow or chow containing 1000 ppm pantothenate plus 75 ppm PZ-3022 beginning at day 21. At 70 days, the liver CoA levels were measured.
# [3] = test system: Pcca−/−(A138T) mouse model of propionic acidemia; experiment: Liver CoA, acetyl-CoA and propionyl-CoA levels in Pcca mouse model; conditions: chow with 1000 ppm pantothenate plus 75 ppm PZ-3022 from day 21, measured at 70 days
# Method: Referring to FIG. 5, a mouse model of propionic acidemia, the Pcca−/−(A138T) (mouse Guensel et al. (2013) Mol. Ther. 21: 1316-23) was fed chow or chow containing 1000 ppm pantothenate plus 75 ppm PZ-3022 beginning at day 21. At 70 days, the liver CoA, acetyl-CoA and propionyl-CoA levels were measured. The Pcca mice had lower free CoA, lower acetyl-CoA and very elevated propionyl-CoA compared to wild-type.
# [4] = test system: Pcca−/−(A138T) mouse model of propionic acidemia; experiment: Plasma acyl-carnitine levels in Pcca mouse model; conditions: chow with 1000 ppm pantothenate plus 75 ppm PZ-3022 from day 21, plasma at 70 days
# Method: as §1, with “6A and FIG. 6B,” for “4,”, “(mouse Guensel” for “mouse (Guensel”, “plasma was analyzed for the” for “liver CoA”, “of acyl-carnitines.” for “were measured.”
# Referring to FIG. 7, the data in FIG. 5 are presented as the C3:C2 ration of plasma carnitines.
smiles,measurement,setting,value
CC(C)c1ccc(CC(=O)N2CCN(c3ccc(C#N)nn3)CC2)cc1 [PZ-2891],blood ammonia levels,[1],Reduction of Blood Ammonia Levels
N#Cc1ccc(N2CCN(C(=O)Cc3ccc(C4CC4)cc3)CC2)nn1 [PZ-3022],liver CoA levels (total),[2],the CoA levels were elevated
same,liver acetyl-CoA,[3],elevated free CoA and acetyl-CoA
same,liver free CoA,[3],elevated free CoA
same,liver propionyl-CoA,[3],propionyl-CoA was reduced
same,C3:C2 ratio of plasma carnitines,[4],reduced the highly elevated C3:C2 ratio
same,plasma acetyl-carnitine,[4],elevated acetyl-carnitine
